Measurements from patent US11795204B2 (Zealand Pharma A/S, priority 2012, dated 2023).
Square brackets hold non-standard residues; d marks the D form. Peptide text beside a SMILES is read from it. Dab = NCC[C@H](N)C(=O)O; Aib = CC(C)(N)C(=O)O

Columns and labels:
physchem = conditions: pH 7.5
Description: A stock solution of the test peptide (2 mg/ml; determined by measurement of the absorption of the solution at 280 nm, and using the theoretical extension coefficient based on the content of tryptophan and tyrosine in the peptide) in demineralized water adjusted to pH 2.5 with HCl was prepared, and aliquots were diluted 1:1 in 100 mM acetate buffer (pH 4.0) and 100 mM phosphate buffer (pH 7.5), respectively, and loaded in a standard flat-bottom, non-sterile 96-well UV Microplate. The absorbance of samples (single samples, n=1) at 280 and 325 nm was measured in an absorbance-based plate reader, which was preheated to ambient temperature.

human Glucagon-R = target: T1, human Glucagon-R (Homo sapiens, UniProt P47871); test: Glucagon receptor assay (cAMP induction, AlphaScreen); assay type: cell-based; conditions: HEK293 cells expressing the human Glucagon-R, 15 min at 37° C., read-out: GCG-R EC50 in vitro
T1 construct: expressed in transfected cells
Description: The 5′-end primers additionally encoded a near-Kozak consensus sequence to ensure efficient translation. […] 48 hr after transfection, cells were seeded for limited dilution cloning and selected with 1 mg/ml G418 in the culture medium.
On the day of analysis, growth medium was removed and the cells were washed once with […] of the included Assay buffer with IBMX. Cells were incubated in […] Assay buffer/IBMX containing increasing concentrations of test peptides for 15 min at 37° C. Then the peptides/Assay buffer was removed and cells were lysed by addition of […] Lysis buffer pr. well and incubation for at least 10 min at room temperature. From each well […] cell lysate was transferred to a 384-well OptiPlate and mixed with Donor and Acceptor beads and incubated for 1 h at room temperature. The cAMP content was measured on an Envision plate reader.

[1] = Chemical stability assessment (RP-HPLC normalized purity); assay type: physicochemical; conditions: for Normalized purity pH 4.0 after 14 days: 1 mg/ml in 50 mM acetate buffer pH 4.0, 40° C.; for Normalized purity pH 7.5 after 14 days: 1 mg/ml in 50 mM phosphate buffer pH 7.5, 40° C.
Description: Samples were placed in glass vials and incubated at 40° C. The samples were analysed by reverse-phase HPLC on a C18 column with gradient elution using an acetonitrile/trifluoroacetic acid/water eluent system. The area-percentage (area-%) of the main peak after incubation time T=t (relative to time T=0) was detected by UV spectrometry at 220 nm. The purity was first determined as follows: Purity(area-%)=(area of main peak/total area of all peaks)×100. […] Normalized purity values in Table 2 were determined after 14 days of incubation.

T1 sequence (P47871 26-477): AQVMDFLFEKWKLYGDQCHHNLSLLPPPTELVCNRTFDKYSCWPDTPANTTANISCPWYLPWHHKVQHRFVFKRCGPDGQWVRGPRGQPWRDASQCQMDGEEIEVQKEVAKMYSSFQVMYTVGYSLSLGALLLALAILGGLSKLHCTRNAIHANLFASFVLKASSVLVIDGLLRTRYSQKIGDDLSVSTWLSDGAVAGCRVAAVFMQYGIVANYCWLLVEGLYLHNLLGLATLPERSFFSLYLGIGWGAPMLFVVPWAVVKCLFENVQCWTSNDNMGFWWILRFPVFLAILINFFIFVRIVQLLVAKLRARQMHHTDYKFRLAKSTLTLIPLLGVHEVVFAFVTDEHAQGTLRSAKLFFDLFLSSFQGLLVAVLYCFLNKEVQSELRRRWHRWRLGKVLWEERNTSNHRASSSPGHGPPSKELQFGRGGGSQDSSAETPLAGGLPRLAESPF

| Molecule | solubility (physchem) | EC50 (human Glucagon-R) | Normalized purity pH 4.0 after 14 days [1] | Normalized purity pH 7.5 after 14 days [1] |
| --- | --- | --- | --- | --- |
| H-HSQGTFTSDYSKYLDEARAKDFVEWLEKT-OH [Compound 5] | ≥ 1000 µg/mL | 0.17 nM | 91.8% | 89.6% |
| H-HSQGTFTSDYSKYLDSARAEDFVKWLEET-OH [Compound 2] | ≥ 1000 µg/mL | 0.18 nM | 83.5% | 86.2% |
| CC(=O)NCC[C@H](NC(=O)[C@H](CO)NC(=O)[C@@H](N)Cc1c[nH]cn1)C(=O)NCC(=O)N[C@H](C(=O)N[C@@H](Cc1ccccc1)C(=O)N[C@H](C(=O)N[C@@H](CO)C(=O)N[C@@H](CC(=O)O)C(=O)N[C@@H](Cc1ccc(O)cc1)C(=O)N[C@@H](CO)C(=O)N[C@@H](CCCCN)C(=O)N[C@@H](Cc1ccc(O)cc1)C(=O)N[C@@H](CC(C)C)C(=O)N[C@@H](CC(=O)O)C(=O)NC(C)(C)C(=O)N[C@@H](C)C(=O)N[C@@H](CCCNC(=N)N)C(=O)N[C@@H](C)C(=O)N[C@@H](CCC(=O)O)C(=O)N[C@@H](CO)C(=O)N[C@@H](Cc1ccccc1)C(=O)N[C@H](C(=O)N[C@@H](CCCCN)C(=O)N[C@@H](Cc1c[nH]c2ccccc12)C(=O)N[C@@H](CC(C)C)C(=O)N[C@@H](CCC(=O)O)C(=O)N[C@@H](CO)C(=O)N[C@H](C(N)=O)[C@@H](C)O)C(C)C)[C@@H](C)O)[C@@H](C)O [Compound 24] (H-HS[Dab](Ac)GTFTSDYSKYLD[Aib]ARAESFVKWLEST-NH2) | ≥ 1000 µg/mL | 0.0078 nM | 92.8% | 94.4% |
| H-HSQGTFTSDYSKYLESARAESFVKWLEST-OH [Compound 16] | ≥ 1000 µg/mL | 0.39 nM | 89.1% | – |
| CC(C)C[C@H](NC(=O)[C@H](Cc1c[nH]c2ccccc12)NC(=O)[C@H](CCCCN)NC(=O)[C@@H](NC(=O)[C@H](Cc1ccccc1)NC(=O)[C@H](CO)NC(=O)[C@H](CCC(=O)O)NC(=O)[C@H](C)NC(=O)[C@H](CCCNC(=N)N)NC(=O)[C@H](C)NC(=O)C(C)(C)NC(=O)[C@H](CC(=O)O)NC(=O)[C@H](CC(C)C)NC(=O)[C@H](Cc1ccc(O)cc1)NC(=O)[C@H](CCCCN)NC(=O)[C@H](CO)NC(=O)[C@H](Cc1ccc(O)cc1)NC(=O)[C@H](CC(=O)O)NC(=O)[C@H](CO)NC(=O)[C@@H](NC(=O)[C@H](Cc1ccccc1)NC(=O)[C@@H](NC(=O)CNC(=O)[C@H](CCC(N)=O)NC(=O)[C@H](CO)NC(=O)[C@@H](N)Cc1c[nH]cn1)[C@@H](C)O)[C@@H](C)O)C(C)C)C(=O)N[C@@H](CCC(=O)O)C(=O)N[C@@H](CO)C(=O)N[C@H](C(N)=O)[C@@H](C)O [Compound 31] (H-HSQGTFTSDYSKYLD[Aib]ARAESFVKWLEST-NH2) | ≥ 1000 µg/mL | 0.0072 nM | 93.1% | 91.7% |
| H-HSQGTFTSDYSKYLDSARAEDFVKWLES-OH [Compound 13] | ≥ 1000 µg/mL | 0.07 nM | 84.6% | 88.8% |
| CC(C)C[C@H](NC(=O)[C@H](Cc1c[nH]c2ccccc12)NC(=O)[C@H](CCCCN)NC(=O)[C@@H](NC(=O)[C@H](Cc1ccccc1)NC(=O)[C@H](CCC(=O)O)NC(=O)[C@H](CCC(=O)O)NC(=O)[C@H](C)NC(=O)[C@H](CCCNC(=N)N)NC(=O)[C@H](C)NC(=O)C(C)(C)NC(=O)[C@H](CC(=O)O)NC(=O)[C@H](CC(C)C)NC(=O)[C@H](Cc1ccc(O)cc1)NC(=O)[C@H](CCCCN)NC(=O)[C@H](CO)NC(=O)[C@H](Cc1ccc(O)cc1)NC(=O)[C@H](CC(=O)O)NC(=O)[C@H](CO)NC(=O)[C@@H](NC(=O)[C@H](Cc1ccccc1)NC(=O)[C@@H](NC(=O)CNC(=O)[C@H](Cc1c[nH]cn1)NC(=O)[C@H](CO)NC(=O)[C@@H](N)Cc1c[nH]cn1)[C@@H](C)O)[C@@H](C)O)C(C)C)C(=O)N[C@@H](CCC(=O)O)C(=O)N[C@@H](CO)C(=O)N[C@H](C(N)=O)[C@@H](C)O [Compound 38] (H-HSHGTFTSDYSKYLD[Aib]ARAEEFVKWLEST-NH2) | ≥ 1000 µg/mL | 0.0047 nM | – | – |
| H-HSQGTFTSDYSKYLDSARAEDFVEWLEST-OH [Compound 6] | ≥ 1000 µg/mL | 1 nM | – | – |
| H-HSQGTFTSDYSKYLDEARAKSFVEWLEST-OH [Compound 28] | ≥ 1000 µg/mL | 0.035 nM | – | – |
| CC(=O)NCC[C@H](NC(=O)[C@H](CO)NC(=O)[C@@H](N)Cc1c[nH]cn1)C(=O)NCC(=O)N[C@H](C(=O)N[C@@H](Cc1ccccc1)C(=O)N[C@H](C(=O)N[C@@H](CO)C(=O)N[C@@H](CC(=O)O)C(=O)N[C@@H](Cc1ccc(O)cc1)C(=O)N[C@@H](CO)C(=O)N[C@@H](CCCCN)C(=O)N[C@@H](Cc1ccc(O)cc1)C(=O)N[C@@H](CC(C)C)C(=O)N[C@@H](CC(=O)O)C(=O)NC(C)(C)C(=O)N[C@@H](C)C(=O)N[C@@H](CCCNC(=N)N)C(=O)N[C@@H](C)C(=O)N[C@@H](CCC(=O)O)C(=O)N[C@@H](CCC(=O)O)C(=O)N[C@@H](Cc1ccccc1)C(=O)N[C@H](C(=O)N[C@@H](CCCCN)C(=O)N[C@@H](Cc1c[nH]c2ccccc12)C(=O)N[C@@H](CC(C)C)C(=O)N[C@@H](CCC(=O)O)C(=O)N[C@@H](CO)C(=O)N[C@H](C(N)=O)[C@@H](C)O)C(C)C)[C@@H](C)O)[C@@H](C)O [Compound 40] (H-HS[Dab](Ac)GTFTSDYSKYLD[Aib]ARAEEFVKWLEST-NH2) | ≥ 1000 µg/mL | 0.0035 nM | – | – |
| CC(C)C[C@H](NC(=O)[C@H](Cc1c[nH]c2ccccc12)NC(=O)[C@H](CCCCN)NC(=O)[C@@H](NC(=O)[C@H](Cc1ccccc1)NC(=O)[C@H](CCC(=O)O)NC(=O)[C@H](CCC(=O)O)NC(=O)[C@H](C)NC(=O)[C@H](CCCNC(=N)N)NC(=O)[C@H](C)NC(=O)C(C)(C)NC(=O)[C@H](CC(=O)O)NC(=O)[C@H](CC(C)C)NC(=O)[C@H](Cc1ccc(O)cc1)NC(=O)[C@H](CCCCN)NC(=O)[C@H](CO)NC(=O)[C@H](Cc1ccc(O)cc1)NC(=O)[C@H](CC(=O)O)NC(=O)[C@H](CO)NC(=O)[C@@H](NC(=O)[C@H](Cc1ccccc1)NC(=O)[C@@H](NC(=O)CNC(=O)[C@H](CCC(N)=O)NC(=O)[C@H](CO)NC(=O)[C@@H](N)Cc1c[nH]cn1)[C@@H](C)O)[C@@H](C)O)C(C)C)C(=O)N[C@@H](CCC(=O)O)C(=O)N[C@@H](CCC(=O)O)C(=O)N[C@H](C(=O)O)[C@@H](C)O [Compound 36] (H-HSQGTFTSDYSKYLD[Aib]ARAEEFVKWLEET-OH) | ≥ 1000 µg/mL | 0.01 nM | – | – |
| H-HSQGTFTSDYSKYLESARAEDFVKWLEST-OH [Compound 8] | ≥ 1000 µg/mL | 0.38 nM | – | – |
| CC(C)C[C@H](NC(=O)[C@H](Cc1c[nH]c2ccccc12)NC(=O)[C@H](C)NC(=O)[C@@H](NC(=O)[C@H](Cc1ccccc1)NC(=O)[C@H](CCC(=O)O)NC(=O)[C@H](CCC(=O)O)NC(=O)[C@H](C)NC(=O)[C@H](CCCNC(=N)N)NC(=O)[C@H](C)NC(=O)C(C)(C)NC(=O)[C@H](CC(=O)O)NC(=O)[C@H](CC(C)C)NC(=O)[C@H](Cc1ccc(O)cc1)NC(=O)[C@H](CCCCN)NC(=O)[C@H](CO)NC(=O)[C@H](Cc1ccc(O)cc1)NC(=O)[C@H](CC(=O)O)NC(=O)[C@H](CO)NC(=O)[C@@H](NC(=O)[C@H](Cc1ccccc1)NC(=O)[C@@H](NC(=O)CNC(=O)[C@H](CCC(N)=O)NC(=O)[C@H](CO)NC(=O)[C@@H](N)Cc1c[nH]cn1)[C@@H](C)O)[C@@H](C)O)C(C)C)C(=O)N[C@@H](CCC(=O)O)C(=O)N[C@@H](CO)C(=O)N[C@H](C(=O)O)[C@@H](C)O [Compound 35] (H-HSQGTFTSDYSKYLD[Aib]ARAEEFVAWLEST-OH) | ≥ 1000 µg/mL | 0.014 nM | – | – |
| H-HSQGTFTSDYSKYLDKRRAEDFVSWLEST-OH [Compound 18] | ≥ 1000 µg/mL | 0.026 nM | – | – |
| H-HSQGTFTSDYSKYLDSARAESFVKWLEST-OH [Compound 1] | ≥ 1000 µg/mL | 0.064 nM | – | – |
| CC(C)C[C@H](NC(=O)[C@H](Cc1c[nH]c2ccccc12)NC(=O)[C@H](CCCCN)NC(=O)[C@@H](NC(=O)[C@H](Cc1ccccc1)NC(=O)[C@H](CO)NC(=O)[C@H](CCC(=O)O)NC(=O)[C@H](C)NC(=O)[C@H](CCCNC(=N)N)NC(=O)[C@H](C)NC(=O)C(C)(C)NC(=O)[C@H](CC(=O)O)NC(=O)[C@H](CC(C)C)NC(=O)[C@H](Cc1ccc(O)cc1)NC(=O)[C@H](CCCCN)NC(=O)[C@H](CO)NC(=O)[C@@H](NC(=O)[C@H](CC(=O)O)NC(=O)[C@H](CO)NC(=O)[C@@H](NC(=O)[C@H](Cc1ccccc1)NC(=O)[C@@H](NC(=O)CNC(=O)[C@H](CCC(N)=O)NC(=O)[C@H](CO)NC(=O)[C@@H](N)Cc1c[nH]cn1)[C@@H](C)O)[C@@H](C)O)C(C)C)C(C)C)C(=O)N[C@@H](CCC(=O)O)C(=O)N[C@@H](CO)C(=O)N[C@H](C(=O)O)[C@@H](C)O [Compound 23] (H-HSQGTFTSDVSKYLD[Aib]ARAESFVKWLEST-OH) | ≥ 1000 µg/mL | 0.16 nM | – | – |
